{"source": "ChEMBL document CHEMBL6092191", "about": "“Advancing Cancer Immunotherapy through Engineering New PD-L1 Degraders: A Comprehensive Study from Small Molecules to PD-L1-Specific Peptide-Drug Conjugates” (J Med Chem, 2024)", "key": {"NCI-H460 [1]": {"tested_on": "NCI-H460", "assay": "Effect on PD-L1 mRNA level in human NCI-H460 cells at 10 uM incubated for 24 hrs by qRT-PCR analysis", "assay_type": "functional, cell-based"}, "[2]": {"assay": "Drug uptake in human PC-9 cells at 10 uM by fluorescence microscopy", "assay_type": "ADME, cell-based", "settings": "pc-9, 10 µM"}, "[3]": {"biological_target": "COP9 signalosome complex subunit 5 (Homo sapiens) (UniProt Q92905)", "sequence (Q92905 2-334 limits assumed, one chain of several)": "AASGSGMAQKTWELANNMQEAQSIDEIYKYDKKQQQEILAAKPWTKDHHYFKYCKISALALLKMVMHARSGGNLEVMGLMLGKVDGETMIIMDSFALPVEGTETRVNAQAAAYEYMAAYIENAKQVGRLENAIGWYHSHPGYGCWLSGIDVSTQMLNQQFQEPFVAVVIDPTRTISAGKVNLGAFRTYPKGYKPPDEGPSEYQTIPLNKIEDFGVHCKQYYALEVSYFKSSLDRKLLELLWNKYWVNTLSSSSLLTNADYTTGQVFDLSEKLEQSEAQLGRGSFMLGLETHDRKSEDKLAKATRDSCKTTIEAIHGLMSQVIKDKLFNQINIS", "assay": "Induction of PD-L1 degradation in human NCI-H460 cells at 10 uM incubated for 24 hrs by Western blot analysis", "assay_type": "cell-based"}, "[4]": {"biological_target": "COP9 signalosome complex subunit 5 (Homo sapiens) (UniProt Q92905)", "assay": "Induction of PD-L1 degradation in human NCI-H460 cells incubated for 24 hrs by Western blot analysis", "assay_type": "cell-based", "settings": "dose <= 100.0 µM"}, "[5]": {"biological_target": "COP9 signalosome complex subunit 5 (Homo sapiens) (UniProt Q92905)", "assay": "Induction of PD-L1 degradation in human PC-9 cells incubated for 24 hrs by Western blot analysis", "assay_type": "cell-based", "settings": "dose <= 100.0 µM"}, "[6]": {"biological_target": "COP9 signalosome complex subunit 5 (Homo sapiens) (UniProt Q92905)", "assay": "Induction of PD-L1 degradation in […] cells incubated for 24 hrs by Western blot analysis", "assay_type": "cell-based", "settings": "Lewis lung carcinoma cell line, dose <= 100.0 µM"}, "[7]": {"biological_target": "COP9 signalosome complex subunit 5 (Homo sapiens) (UniProt Q92905)", "assay": "Induction of PD-L1 degradation in human NCI-H460 cells at 10 uM by Western blot analysis", "assay_type": "cell-based", "settings": "time <= 36.0 hrs"}, "[8]": {"biological_target": "COP9 signalosome complex subunit 5 (Homo sapiens) (UniProt Q92905)", "assay": "Induction of PD-L1 degradation in human PC-9 cells at 10 uM by Western blot analysis", "assay_type": "cell-based", "settings": "time <= 36.0 hrs"}, "[9]": {"biological_target": "COP9 signalosome complex subunit 5 (Homo sapiens) (UniProt Q92905)", "assay": "Induction of IFN-gamma-induced PD-L1 degradation in human HCC827 cells at 10 uM incubated for 24 hrs by Western blot analysis", "assay_type": "cell-based"}, "[10]": {"biological_target": "COP9 signalosome complex subunit 5 (Homo sapiens) (UniProt Q92905)", "assay": "Induction of IFN-gamma-induced PD-L1 degradation in human A549 cells at 10 uM incubated for 24 hrs by Western blot analysis", "assay_type": "cell-based"}, "[11]": {"biological_target": "COP9 signalosome complex subunit 5 (Homo sapiens) (UniProt Q92905)", "assay": "Induction of PD-L1 degradation in human PC-9 cells assessed as reduction in green signal at 10 uM incubated for 24 hrs by immunofluorescence staining based analysis", "assay_type": "cell-based"}, "[12]": {"tested_on": "Lewis lung carcinoma cell line", "assay": "Anticancer activity against Lewis lung carcinoma cells measured after 3 days by MTT assay", "assay_type": "functional, cell-based", "settings": "Mus musculus, 72 h"}, "NCI-H460 [13]": {"tested_on": "NCI-H460", "assay": "Antiproliferative activity against human NCI-H460 cells at 10 uM measured after 4 days by MTT assay", "assay_type": "functional, cell-based", "settings": "time 4.0 day"}, "[14]": {"tested_on": "Lewis lung carcinoma cell line", "assay": "Antiproliferative activity against Lewis lung carcinoma cells at 10 uM measured after 4 days by MTT assay", "assay_type": "functional, cell-based", "settings": "Mus musculus, time 4.0 day"}, "NCI-H460 [15]": {"tested_on": "NCI-H460", "assay": "Inhibition of cell survival of human NCI-H460 cells co-cultivated with activated T cells at 10 uM incubated for 2 days by crystal violet staining based analysis", "assay_type": "functional", "settings": "time 2.0 day"}, "[16]": {"tested_on": "Lewis lung carcinoma cell line", "assay": "Anticancer activity against Lewis lung carcinoma cells xenografted in C57BL/6 mouse model assessed as tumor growth inhibition at 10 mg/kg, ip administered daily for 10 days", "assay_type": "functional, organism-based", "settings": "time 10.0 day"}, "[17]": {"tested_on": "Lewis lung carcinoma cell line", "assay": "Anticancer activity against Lewis lung carcinoma cells xenografted in C57BL/6 mouse model at 10 mg/kg, ip administered daily for 10 days relative to control", "assay_type": "functional", "settings": "240 h, time 10 day, read-out: TGI"}, "[18]": {"tested_on": "Lewis lung carcinoma cell line", "assay": "Anticancer activity against Lewis lung carcinoma cells xenografted in C57BL/6 mouse model assessed as decrease in Ki-67 level at 10 mg/kg, ip administered daily for 10 days by IHC analysis", "assay_type": "functional, organism-based", "settings": "time 10.0 day"}, "[19]": {"tested_on": "Lewis lung carcinoma cell line", "assay": "Antitumor T-cell immune response in Lewis lung carcinoma cells xenografted in C57BL/6 mouse model assessed as increase in ratio of CD8+ to CD4+ T cells in tumor at 10 mg/kg, ip administered daily for 10 days by flow cytometry", "assay_type": "functional, organism-based", "settings": "time 10.0 day"}, "[20]": {"tested_on": "Lewis lung carcinoma cell line", "assay": "Antitumor T-cell immune response in Lewis lung carcinoma cells xenografted in C57BL/6 mouse model assessed as increase in TNF-alpha level in tumor at 10 mg/kg, ip administered daily for 10 days by ELISA", "assay_type": "functional, organism-based", "settings": "time 10.0 day"}, "[21]": {"tested_on": "Lewis lung carcinoma cell line", "assay": "Antitumor T-cell immune response in Lewis lung carcinoma cells xenografted in C57BL/6 mouse model assessed as increase in GrB level in tumor at 10 mg/kg, ip administered daily for 10 days by ELISA", "assay_type": "functional, organism-based", "settings": "time 10.0 day"}, "[22]": {"assay": "Toxicity in C57BL/6 mouse model xenografted with […] cells assessed as body weight loss at 10 mg/kg, ip administered daily for 10 days", "assay_type": "organism-based", "settings": "in vivo, 240 h, time 10 day"}, "[23]": {"assay": "Toxicity in C57BL/6 mouse model xenografted with […] cells assessed as obvious damage in heart at 10 mg/kg, ip administered daily for 10 days by H and E staining based analysis", "assay_type": "organism-based", "settings": "in vivo, 240 h, time 10 day"}, "[24]": {"assay": "Toxicity in C57BL/6 mouse model xenografted with […] cells assessed as obvious damage in lung at 10 mg/kg, ip administered daily for 10 days by H and E staining based analysis", "assay_type": "organism-based", "settings": "in vivo, 240 h, time 10 day"}, "[25]": {"assay": "Toxicity in C57BL/6 mouse model xenografted with […] cells assessed as obvious damage in spleen at 10 mg/kg, ip administered daily for 10 days by H and E staining based analysis", "assay_type": "organism-based", "settings": "in vivo, 240 h, time 10 day"}, "[26]": {"assay": "Toxicity in C57BL/6 mouse model xenografted with […] cells assessed as obvious damage in kidney at 10 mg/kg, ip administered daily for 10 days by H and E staining based analysis", "assay_type": "organism-based", "settings": "in vivo, 240 h, time 10 day"}, "[27]": {"assay": "Toxicity in C57BL/6 mouse model xenografted with […] cells assessed as change in serum creatinine level at 10 mg/kg, ip administered daily for 10 days", "assay_type": "organism-based", "settings": "in vivo, 240 h, time 10 day"}, "[28]": {"assay": "Toxicity in C57BL/6 mouse model xenografted with […] cells assessed as change in BUN level at 10 mg/kg, ip administered daily for 10 days", "assay_type": "organism-based, Blood", "settings": "in vivo, 240 h, time 10 day"}, "Lewis lung carcinoma": {"tested_on": "Lewis lung carcinoma", "assay": "Effect on PD-L1 mRNA level in Lewis lung carcinoma cells at 10 uM incubated for 24 hrs by qRT-PCR analysis", "assay_type": "functional, cell-based", "settings": "Mus musculus"}, "HCC827": {"tested_on": "HCC827", "assay": "Effect on IFN-gamma-induced PD-L1 mRNA expression in human HCC827 cells at 10 uM by qRT-PCR analysis", "assay_type": "functional, cell-based"}, "NCI-H1299": {"tested_on": "NCI-H1299", "assay": "Effect on IFN-gamma-induced PD-L1 mRNA expression in human NCI-H1299 cells at 10 uM by qRT-PCR analysis", "assay_type": "functional, cell-based"}, "[29]": {"biological_target": "COP9 signalosome complex subunit 5 (Homo sapiens) (UniProt Q92905)", "assay": "Induction of PD-L1 degradation in human NCI-H460 cells at 10 uM pretreated with compound followed by CHX incubation upto 8 hrs by Western blot analysis", "assay_type": "cell-based"}, "[30]": {"biological_target": "COP9 signalosome complex subunit 5 (Homo sapiens) (UniProt Q92905)", "assay": "Induction of PD-L1 degradation in human NCI-H460 cells upto 20 uM in presence of MG132 by Western blot analysis", "assay_type": "cell-based"}, "[31]": {"biological_target": "COP9 signalosome complex subunit 5 (Homo sapiens) (UniProt Q92905)", "assay": "Induction of PD-L1 degradation in human NCI-H460 cells assessed as PD-L1 ubiquitination by Western blot analysis", "assay_type": "cell-based"}, "[32]": {"biological_target": "COP9 signalosome complex subunit 5 (Homo sapiens) (UniProt Q92905)", "assay": "Binding affinity to CSN5 in NCI-H460 cell lysate by Western blot analysis", "assay_type": "subcellular"}, "[33]": {"biological_target": "COP9 signalosome complex subunit 5 (Homo sapiens) (UniProt Q92905)", "assay": "Induction of PD-L1 degradation in human NCI-H460 cells overexpressing CSN5 by Western blot analysis", "assay_type": "cell-based"}, "3T3-L1": {"tested_on": "3T3-L1", "assay": "Antiproliferative activity against mouse 3T3-L1 cells at 10 uM incubated for 4 days", "assay_type": "toxicity, cell-based", "settings": "3t3-l1, 96 h, time 4 day"}, "[34]": {"tested_on": "Lewis lung carcinoma cell line", "assay": "Antitumor activity against Lewis lung carcinoma cells xenografted in C57BL/6 mouse model at 5 mg/kg, ip administered daily for 8 days relative to control", "assay_type": "functional", "settings": "192 h, time 8 day, read-out: TGI"}, "[35]": {"tested_on": "Lewis lung carcinoma cell line", "assay": "Antitumor T-cell immune response in Lewis lung carcinoma cells xenografted in C57BL/6 mouse model assessed as increase in ratio of CD8+ to CD4+ T cells in tumor at 5 mg/kg, ip administered daily for 8 days by flow cytometry", "assay_type": "functional, organism-based", "settings": "time 8.0 day"}}, "note": "pIC50: −log10 of the molar value. Active and inactive are the calls of the source. The rule behind the calls is not given here."}
{"molecule": "COc1cc2c(cc1OC)-c1cc3ccc(OC)c(OCCN)c3c[n+]1CC2.[Cl-]", "values": [{"measurement": "Activity", "setting": "NCI-H460 [1]", "result": "inactive"}, {"measurement": "Drug uptake", "setting": "[2]", "result": "Time-dependent-effect"}, {"measurement": "Activity", "setting": "[3]", "result": "Active; Most Effective Compound Among Pmt-O9 Derivatives"}, {"measurement": "Activity", "setting": "[4]", "result": "Dose-dependent-effect"}, {"measurement": "Activity", "setting": "[5]", "result": "Dose-dependent-effect"}, {"measurement": "Activity", "setting": "[6]", "result": "Dose-dependent-effect"}, {"measurement": "Activity", "setting": "[7]", "result": "Time-dependent-effect"}, {"measurement": "Activity", "setting": "[8]", "result": "Time-dependent-effect"}, {"measurement": "Activity", "setting": "[9]", "result": "Active"}, {"measurement": "Activity", "setting": "[10]", "result": "Active"}, {"measurement": "Activity", "setting": "[11]", "result": "Active"}, {"measurement": "pIC50", "setting": "[12]", "result": 3.91}, {"measurement": "Activity", "setting": "NCI-H460 [13]", "result": "inactive"}, {"measurement": "Activity", "setting": "[14]", "result": "inactive"}, {"measurement": "inhibition", "setting": "NCI-H460 [15]", "result": "Active"}, {"measurement": "Activity", "setting": "[16]", "result": "Active"}, {"measurement": "inhibition in vivo at 10 mg/kg", "setting": "[17]", "result": 71, "unit": "%"}, {"measurement": "Activity", "setting": "[18]", "result": "Active"}, {"measurement": "Activity", "setting": "[19]", "result": "Active; Highest Enhancement Of Ratio Observed"}, {"measurement": "Activity", "setting": "[20]", "result": "Active"}, {"measurement": "Activity", "setting": "[21]", "result": "Active"}, {"measurement": "Activity", "setting": "[22]", "result": "Non-toxic"}, {"measurement": "Activity", "setting": "[23]", "result": "Non-toxic"}, {"measurement": "Activity", "setting": "[24]", "result": "Non-toxic"}, {"measurement": "Activity", "setting": "[25]", "result": "Non-toxic"}, {"measurement": "Activity", "setting": "[26]", "result": "Non-toxic"}, {"measurement": "Activity", "setting": "[27]", "result": "Non-toxic"}, {"measurement": "Activity", "setting": "[28]", "result": "Non-toxic"}, {"measurement": "Activity", "setting": "Lewis lung carcinoma", "result": "inactive"}, {"measurement": "Activity", "setting": "HCC827", "result": "inactive"}, {"measurement": "Activity", "setting": "NCI-H1299", "result": "inactive"}, {"measurement": "Activity", "setting": "[29]", "result": "inactive"}, {"measurement": "Activity", "setting": "[30]", "result": "inactive"}, {"measurement": "Activity", "setting": "[31]", "result": "Active"}, {"measurement": "Activity", "setting": "[32]", "result": "Active"}, {"measurement": "Activity", "setting": "[33]", "result": "inactive"}, {"measurement": "Activity", "setting": "3T3-L1", "result": "Non-toxic"}, {"measurement": "inhibition in vivo at 5 mg/kg", "setting": "[34]", "result": 66, "unit": "%"}, {"measurement": "Activity", "setting": "[35]", "result": "Active"}]}
